Data on 28 molecules can be found in US10118936B2, “Arginase inhibitors and methods of use” (ASTRAZENECA AB, priority 2009, dated 2018).

SMILES strings stand for the structures. “Also recorded” adds a separate entry of the source. Where a name gives a salt, the structure may show the parent alone.

Data set [1] has as its target T1, human arginase II (hArgII) (Homo sapiens, UniProt P78540).
T1 sequence (P78540 23-354): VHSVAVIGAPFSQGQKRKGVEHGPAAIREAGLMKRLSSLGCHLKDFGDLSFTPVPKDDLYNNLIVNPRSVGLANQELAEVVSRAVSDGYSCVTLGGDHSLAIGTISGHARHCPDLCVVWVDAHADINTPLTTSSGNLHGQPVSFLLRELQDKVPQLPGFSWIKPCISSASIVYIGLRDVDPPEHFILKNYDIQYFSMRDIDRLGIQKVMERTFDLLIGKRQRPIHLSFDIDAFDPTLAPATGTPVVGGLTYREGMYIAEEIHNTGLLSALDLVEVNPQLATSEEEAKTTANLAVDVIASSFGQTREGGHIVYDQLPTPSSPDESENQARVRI
The data set is described as follows: QuantiChrom colorimetric arginase inhibition assay, human arginase II. In kind it is biochemical. The conditions noted are these: IC50 from 12-concentration curve converted to Ki by Cheng-Prusoff equation. Here is the method:
(§1) Quantitative determination of arginase activity was performed by a colorimetric method using the QuantiChrom™ Arginase Assay Kit available from BioAssay Systems (Hayward, Calif., Catalog No. DARG-200), which was used according to the manufacture's protocol. Briefly, the method utilizes a chromogen that forms a colored complex specifically with urea produced in the arginase reaction. […] The intensity of the color is directly proportional to the arginase activity in the sample.
(§2) The rate of urea production was measured in the presence of twelve different concentrations of each potential inhibitor compound. The half maximal inhibitory concentration (IC50) was determined by constructing a dose-response curve. As IC50 values are dependent upon the measurement conditions, the IC50 values are converted to the inhibitor binding affinity (Ki) using the Cheng-Prusoff equation and the measured affinity constant (Km) of L-arginine.

For the next data set, the target named is T2, human arginase I (hArgI) (Homo sapiens, UniProt P05089).
T2 sequence (P05089 1-322): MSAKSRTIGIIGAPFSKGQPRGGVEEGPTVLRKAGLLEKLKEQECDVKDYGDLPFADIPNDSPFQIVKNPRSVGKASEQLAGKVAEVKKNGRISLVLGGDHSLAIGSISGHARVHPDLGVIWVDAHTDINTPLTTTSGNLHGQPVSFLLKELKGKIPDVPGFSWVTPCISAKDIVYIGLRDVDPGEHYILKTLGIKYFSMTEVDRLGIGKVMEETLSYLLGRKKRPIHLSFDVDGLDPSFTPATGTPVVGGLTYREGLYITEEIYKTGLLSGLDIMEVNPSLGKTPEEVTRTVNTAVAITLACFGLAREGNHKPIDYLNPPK
The data set is described as follows: QuantiChrom colorimetric arginase inhibition assay, human arginase I. The format is biochemical. The conditions noted are these: IC50 from 12-concentration curve converted to Ki by Cheng-Prusoff equation. Here is the method: as §1, §2

Another data set deals with arginase. The data set is described as follows: Arginase inhibition, potency comparisons (isoform not stated). In kind it is biochemical, human. The conditions noted are these: relative potency statements in text. As for the experimental part:
Quantitative determination of arginase activity was performed by a colorimetric method using the QuantiChrom™ Arginase Assay Kit available from BioAssay Systems (Hayward, Calif., Catalog No. DARG-200), which was used according to the manufacture's protocol. Briefly, the method utilizes a chromogen that forms a colored complex specifically with urea produced in the arginase reaction. See, Mellerup, “Colorimetric method for rapid determination of serum arginase,” Clin. Chem. 13, 900-08 (1967). The intensity of the color is directly proportional to the arginase activity in the sample.
The rate of urea production was measured in the presence of twelve different concentrations of each potential inhibitor compound. The half maximal inhibitory concentration (IC50) was determined by constructing a dose-response curve. As IC50 values are dependent upon the measurement conditions, the IC50 values are converted to the inhibitor binding affinity (Ki) using the Cheng-Prusoff equation and the measured affinity constant (Km) of L-arginine. See, e.g., Cheng et al., “Relationship between the inhibition constant (K1) and the concentration of inhibitor which causes 50 percent inhibition (I50) of an enzymatic reaction,” Biochem. Pharmacol. 22, 3099-108 (1973).
In Table 6, the Ki values reflect the potency of these molecules to inhibit the catalytic activity of arginase to produce urea from the substrate L-arginine. […] That is, racemic materials were compared to racemic controls. Thus, there are several examples that have similar potencies to Rac-ABH.
Shortening the alkyl chain by one carbon atom as in the phenoxyethyl compound 1ad also results in a potency loss. Thus, there appears to be definitive structure-activity features that results in increased potency at the molecular target, arginase, in these α,α-disubstituted derivatives.

The conditions of data set [2]: cited from earlier work.

Take `CC(N)(CCCCB(O)O)C(=O)O` (stereo not drawn) [Compound 1ao, 2-Amino-6-borono-2-methylhexanoic acid hydrochloride]: the Ki in data set [1] fell in the range of 10 to 100 nM; on human arginase I (hArgI), 0.1 to 10 nM.

Take `N[C@](CO)(CCCCB(O)O)C(=O)O` (single isomer, unassigned) [Compound 1as]: the inhibitory constant (Ki) (in data set [1]; at human arginase I (hArgI)) was 100 to 500 nM each time.

For `Cl.NC(CCCO)(CCCCB(O)O)C(=O)O` (stereo not drawn) [Compound 1ak, 2-Amino-6-borono-2-(3-hydroxypropyl)hexanoic acid hydrochloride], the “potency as arginase inhibitor, compared in words” value in the data set with arginase was “less potent”.

Turning to `NC(CO)(CCCCB(O)O)C(=O)O` (stereo not drawn) [Compound 1aq, 2-Amino-6-borono-2-(hydroxymethyl)hexanoic acid hydrochloride], the Ki in data set [1] was in the range of 10 to 100 nM; on human arginase I (hArgI), 0.1 to 10 nM.

Turning to `NC(CCCCB(O)O)(CCOc1cccc(Cl)c1)C(=O)O` (stereo not drawn) [Compound 1ad, 2-Amino-6-borono-2-(2-(3-chlorophenoxy)ethyl)hexanoic acid], the Ki (in data set [1]; on human arginase I (hArgI)) was 10 to 100 nM throughout. Also, in the data set with arginase, the “potency as arginase inhibitor, compared in words” value is on record as “potency loss”.

With `Cl.NC(CCCCB(O)O)(CCCOc1ccccc1)C(=O)O` (stereo not drawn) [Compound 1d, 2-Amino-6-(borono-2-(3-phenoxypropyl)hexanoic acid hydrochloride], the Ki (in data set [1]; at human arginase I (hArgI)) was 0.1 to 10 nM in each case.

For `NC(CCCCB(O)O)(Cc1ccccc1)C(=O)O` (stereo not drawn) [Compound 1a, 2-Amino-2-benzyl-6-boronohexanoic acid hydrochloride], the Ki (in data set [1]; on human arginase I (hArgI)) was 100 to 500 nM each time.

In the case of `Cc1ccc(S(=O)(=O)NCCCCC(N)(CCCCB(O)O)C(=O)O)cc1` (stereo not drawn) [Compound 40a, 2-Amino-6-borono-2-(4-(4-methylphenylsulfonamido)butyl)hexanoic acid], the Ki (in data set [1]; on human arginase I (hArgI)) was 10 to 100 nM in each case.

With `NC(CCCCB(O)O)(CCCCc1ccccc1)C(=O)O` (stereo not drawn) [Compound 1e, 2-Amino-6-borono-2-(4-phenylbutyl)hexanoic acid], the Ki (in data set [1]; on human arginase I (hArgI)) was 10 to 100 nM each time.

With `COc1cccc(NC(=O)NCCOCCC(N)(CCCCB(O)O)C(=O)O)c1` (stereo not drawn) [Compound 39a, 2-Amino-6-borono-2-(2-(2-(3-(3-methoxyphenyl)ureido)ethoxy)ethyl)hexanoic acid], the Ki (in data set [1]; on human arginase I (hArgI)) was 10 to 100 nM in each case.

`NC(CCCCB(O)O)(CCCN1CCNCC1)C(=O)O` (stereo not drawn) [Compound 1ba]: the Ki (in data set [1]; at human arginase I (hArgI)) was 10 to 100 nM each time.

In the case of `CC(N)(CCNC(N)=NO)C(=O)O` (stereo not drawn) [Compound 54a, 2-Amino-4-(2-hydroxyguanidino)-2-methylbutanoic acid dihydrochloride], the Ki (in data set [1]; on human arginase I (hArgI)) was 100 to 500 nM each time.

For the molecule `CC[C@H](C)C(=O)O[C@H]1C[C@@H](C)C=C2C=C[C@H](C)[C@H](CC[C@@H]3C[C@@H](O)CC(=O)O3)[C@H]21` [lovastatin, reference compound], the “half-life of lactone hydrolysis” value in data set [2] (gastric pH and temperature) was “about 1 hour”.

Take `NCCCCC(N)(CCCCB(O)O)C(=O)O` (stereo not drawn) [Compound 1bb, 2,6-Diamino-2-(4-boronobutyl)hexanoic acid]: the inhibition constant (Ki) (in data set [1]; at human arginase I (hArgI)) was 0.1 to 10 nM each time.

As for `O=C1CCc2ccccc2O1` [dihydrocoumarin], the half-life entry in data set [2] (37° C. in the stomach) is “about 1 hour”.

In the case of `N=C(NO)NCC[C@H](N)C(=O)O` [Nor-NOHA, N^ω-hydroxy-nor-1-arginine, reference compound], the Ki in data set [1] lay in the range of 100 to 500 nM.

As for `CCC(=O)CC(N)(CCCCB(O)O)C(=O)O` (stereo not drawn) [Compound 1aw, 2-Amino-6-borono-2-(2-oxobutyl)hexanoic acid hydrochloride], the Ki (in data set [1]; at human arginase I (hArgI)) was 10 to 100 nM throughout.

Take `N#Cc1ccc(C(=O)NCCOCCC(N)(CCCCB(O)O)C(=O)O)cc1` (stereo not drawn) [Compound 38a, 2-Amino-6-borono-2-(2-(2-(4-cyanobenzamid)ethoxy)ethyl)hexanoic acid trifluoroacetate]: the Ki (in data set [1]; at human arginase I (hArgI)) was 10 to 100 nM each time.

Take `CC(C)CC(N)(CCCCB(O)O)C(=O)O` (stereo not drawn) [Compound 1ap, 2-Amino-6-borono-2-isobutylhexanoic acid hydrochloride]: the inhibition constant Ki (in data set [1]; on human arginase I (hArgI)) was 10 to 100 nM in each case.

As to `NC(CCCCB(O)O)(CCCC1CCNCC1)C(=O)O` (stereo not drawn) [Compound 1az, 2-Amino-6-borono-2-(3-(piperidin-4-yl)propyl)hexanoic acid], the Ki (in data set [1]; at human arginase I (hArgI)) was 0.1 to 10 nM throughout.

Consider `NC(CCCCB(O)O)(CCCOc1ccc(F)cc1)C(=O)O` (stereo not drawn) [Compound 1h, 2-Amino-6-borono-2-(3-(4-fluorophenoxy)propyl)hexanoic acid], for which the results for the Ki (in data set [1]; on human arginase I (hArgI)) were 10 to 100 nM and 0.1 to 10 nM, respectively.

For `NC(CCCCB(O)O)C(=O)O` (racemic) [Rac-ABH, reference compound], the Ki lay in the range of 10 to 100 nM in data set [1] and 0.1 to 10 nM on human arginase I (hArgI).

As for `Cl.NC(CCCCB(O)O)(CCCOc1ccccc1)C(=O)O` (stereo not drawn) [Compound 1d], the “potency as arginase inhibitor, compared in words” value in the data set on arginase is “as potent as Rac-ABH”.

Consider `COc1cccc(NC(=O)N2CCN(CCCC(N)(CCCCB(O)O)C(=O)O)CC2)c1` (stereo not drawn) [Compound 39c, 2-Amino-6-borono-2-(3-(4-(3-methoxyphenylcarbamoyl)piperazin-1-yl)propyl)hexanoic acid], for which the Ki (in data set [1]; on human arginase I (hArgI)) was 10 to 100 nM throughout.

As to `Cl.NC(CCCCB(O)O)(CCOCc1ccccc1)C(=O)O` (stereo not drawn) [Compound 1aa, 2-Amino-2-(benzyloxyethyl)-6-boronohexanoic acid hydrochloride], the inhibitory constant (Ki) (in data set [1]; on human arginase I (hArgI)) was 10 to 100 nM throughout. Also, the “potency as arginase inhibitor, compared in words” value with arginase is listed as “potency is lost”.

With `NC(CCCCB(O)O)(CC(=O)c1ccccc1)C(=O)O` (stereo not drawn) [Compound 1ax, 2-Amino-6-borono-2-(2-oxo-2-phenylethyl)hexanoic acid hydrochloride], the Ki (in data set [1]; on human arginase I (hArgI)) was 10 to 100 nM in each case.

Regarding `N[C@@](CO)(CCCCB(O)O)C(=O)O` (single isomer, unassigned) [Compound 1ar], the Ki (in data set [1]; on human arginase I (hArgI)) was 0.1 to 10 nM throughout. In addition, the “potency as arginase inhibitor, compared in words” value with arginase was “most potency as an arginase inhibitor by two orders of magnitude compared to compound 1as; also recorded: as potent as ABH; also recorded: almost two orders of magnitude) more potent than the other enantiomer”.

For the molecule `CC(=O)NCCOCCC(N)(CCCCB(O)O)C(=O)O` (stereo not drawn) [Compound 38b, 2-(2-(2-Acetamidoethoxy)ethyl)-2-amino-6-boronohexanoic acid], the Ki (in data set [1]; at human arginase I (hArgI)) was 100 to 500 nM throughout.
